Entries after “also recorded” stand apart in the source; their conditions may differ.
Columns and labels:
Assay type in all cases: cell-based
HIV-1NL4-3 = assay: HIV-1 replication measured by p24 release in CEM-SS T cells; conditions: CEM-SS T cells pre-treated 1 hour, infected with HIV-1NL4-3
Experimental: (§1) Briefly, CEM-SS T cells were pre-treated with DMSO or CK548 for 1 hour, and then infected with HIV-1NL4-3. Viral replication was measured by p24 release (see FIG. 5A). Drug cytotoxicity was meaured in CK548-treated and infected cells by PI staining and flow cytometry (see FIG. 5B). Shown is the percentage of PI-positive cells. […] Cells were infected for 2 hours, washed, and cultured in the presence of the drug for 48 hours. Total cellular DNA was extracted at 48 hours post infection and then PCR-amplified to quantify viral DNA (for results see FIG. 5C). Viral 2-LTR-circles were also measured (see FIG. 5D). The relative ratio of 2-LTR circles to viral total DNA was also plotted.

CEM-SS T cells = assay: Drug cytotoxicity by PI staining and flow cytometry; conditions: CK548-treated and infected CEM-SS T cells; at 50 μM and below
Experimental: as §1

[1] = test system: single-cycle HIV-1(Env) pseudotyped with HIV-1 gp160; assay: Viral nuclear migration, 2-LTR circles measured after single-cycle HIV-1 infection; conditions: CEM-SS T cells, 48 hours post infection
Experimental: as §1
(§2) The nuclear migration assay was performed in two CEM-SS-based cells, shArp-12 and shArp-13, which we recently constructed. In both shArp-12 and shArp-13, the actin branching factor Arp3 was stably knockdown (80% knockdown). […] We will re-measure the nuclear entry defect by BLNMA. […] We will also perform BLNMA to confirm the phenotype.

[2] = test system: single-cycle HIV-1(Env) pseudotyped with HIV-1 gp160; assay: PCR quantification of viral DNA after single-cycle HIV-1 infection; conditions: CEM-SS T cells, 48 hours post infection
Experimental: as §1, §2

Compound: O=C1CSC(c2cccc(Br)c2)N1c1cc(Cl)ccc1O (stereo not shown) [CK548]
- HIV-1 infection (viral replication by p24 release) (HIV-1NL4-3): inhibits HIV-1 infection
- Drug cytotoxicity (percentage of PI-positive cells) (CEM-SS T cells): No drug cytotoxicity was detectable
- HIV nuclear migration (2-LTR circles) [1]: inhibits HIV-1 infection and viral nuclear migration; also recorded: dramatically inhibited HIV nuclear migration
- HIV DNA synthesis (viral total DNA by PCR) [2]: stimulating HIV DNA synthesis

From US10793864B2, “Methods and compositions for assessing viral nuclear localization” (GEORGE MASON UNIVERSITY, priority 2015, dated 2020)
